From article PMC11218446, “Antibacterial efficacy and membrane mechanism of action of the Serratia-derived non-ionic lipopeptide, serrawettin W2-FL10” (Microbiology Spectrum, 2024)
“And” between values parts separate entries of the source, which are not always exact repeats. Equal entries are not always repeated. Marks after values point to notes of the source that are not given here.

Assays:
[1] = system: L. monocytogenes ATCC 13932; assay: Broth microdilution assay (OD 600 nm); format: cell-based, Listeria monocytogenes
Method: Serrawettin W2-FL10 (95% pure) was tested for antibacterial activity using a broth microdilution susceptibility assay ([6]), with melittin included as an antibiotic control. The serrawettin W2-FL10 was prepared in 70% MeCN to 1.00 mg/mL, from which aliquots were prepared using 70% MeCN to a concentration of 50 µg/mL or 500 µg/mL, while aliquots of melittin were prepared using analytical quality H2O to 128 µg/mL. Fifty microliters of the respective W2-FL10 aliquots or melittin were dispensed into a clear 96-well plate and a microdilution (in 70% MeCN for W2-FL10 or analytical quality H2O for melittin) was performed within the plate. The plate was air-dried to remove the solvent and placed in a desiccator with chloroform for 20 min for sterilization.
All the cultures (inoculated into 5 mL MHB, or 5 mL TSB for Listeria and Enterococcus strains) were incubated at 37°C to reach an optical density (OD) of 0.4 at 600 nm (∼10^7 CFU/mL). A 1:20 dilution of the test strain (final concentration of ∼10^5 CFU/mL) was prepared and 100 µL was dispensed into each well (final concentration of W2-FL10 at 1.5–125 µg/mL and melittin at 2–32 µg/mL). Sterile broth and the OD-adjusted inoculum were included as positive controls, while sterile broth (no inoculum) was included as a negative control. The 96-well plate was incubated for 18 h at 37°C. All the tests were performed in triplicate, with independent duplicates. Following incubation, the absorbance was measured using a microtiter plate reader at 600 nm. The 50% growth inhibition concentration (IC50) was determined using GraphPad Prism version 5 for Windows [GraphPad Software, San Diego, USA (www.graphpad.com)]. A sigmodal curve with variable slope was fitted to each set of dose-repose data according to Rautenbach et al. ([17]) using equation (1):
(1) Y=bottom+(top−bottom)/1+10^logIC50×Activity slope
The “top” and “bottom” are the maximum and minimum inhibition responses, respectively, for a particular set of dose-response data, while the activity slope is related to the Hill slope of a sigmoidal binding curve ([16]). […] The MIC value was determined for each set of dose-response data as the lowest concentration, resulting in ≥90% inhibition of the target cell growth. In addition to the MIC and IC50 inhibition parameters, an inhibition concentration factor (ICF), was calculated as outlined in Rautenbach et al. ([17]). The ICF is indicative of the concentration increase from the highest concentration where no activity is observed to the MIC of a compound.

[2] = system: Chinese hamster ovarian (CHO) cell line; assay: Mammalian cell cytotoxicity, MTT assay; conditions: CHO cells
Method: (§1) To determine the biocompatibility of W2-FL10 as a potential therapeutic agent, the in vitro cytotoxicity of W2-FL10 against the CHO cell line ([50]) was determined over 48 h by the Drug Discovery and Development Centre at the University of Cape Town, as previously described by Mosmann ([51]). Briefly, W2-FL10 was prepared to a 10 mM stock solution in 100% DMSO and dilutions were prepared in growth media. The CHO cell line density of 10^5 cells/well in 96-well plates and allowed to attach for 24 h. Thereafter, the compound was added to the 96-well plates at various concentrations from 50 µM down to 16 nM and incubated for a further 48 h. At 44 h, MTT was added to the wells, and the plates were read 4 h later at 540 nm on a spectrophotometer. […] Finally, cell inhibition was plotted against concentration and the 50% lethal concentration (LC50) parameter and a minimum lethal concentration (MLC90) were obtained as described for the dose responses against bacterial targets above (equation 1).

[3] = Mammalian cell cytotoxicity, MTT assay; conditions: CHO cells
Method: as §1

[4] = system: tested Gram-negative bacterial strains; assay: Broth microdilution assay (OD 600 nm); format: cell-based; conditions: results not shown
Description: The S. marcescens NP2 strain was previously isolated from a wastewater treatment plant sample and the identity of the strain was confirmed via molecular typing ([47]). The S. marcescens NP2 strain was deposited in the South African Rhizobium Culture Collection (SARCC no. 3157). The test bacterial strains used in the broth microdilution assay included L. monocytogenes ATCC 13932, E. faecalis ATCC 7080, S. aureus ATCC 25923, S. aureus RN4220, MRSA Xen 30, E. faecalis S1, E. faecium S1, B. subtilis ATCC 6051, E. coli ATCC 417371, P. aeruginosa ATCC 27853, K. pneumoniae ATCC 13383, A. baumannii ATCC 19606, and S. typhimurium ATCC 14028. […]
All the cultures (inoculated into 5 mL MHB, or 5 mL TSB for Listeria and Enterococcus strains) were incubated at 37°C to reach an optical density (OD) of 0.4 at 600 nm (∼10^7 CFU/mL). […] Following incubation, the absorbance was measured using a microtiter plate reader at 600 nm. […]
The “top” and “bottom” are the maximum and minimum inhibition responses, respectively, for a particular set of dose-response data, while the activity slope is related to the Hill slope of a sigmoidal binding curve ([16]). […] In addition to the MIC and IC50 inhibition parameters, an inhibition concentration factor (ICF), was calculated as outlined in Rautenbach et al. ([17]). […]

For CCCCCCCC1CC(=O)N[C@H](CC(C)C)C(=O)N[C@@H](CO)C(=O)N[C@@H]([C@@H](C)O)C(=O)N[C@H](Cc2ccccc2)C(=O)N[C@@H](CC(C)C)C(=O)O1 (some centres unmarked) [W2-FL10, serrawettin W2-FL10], the “IC50 ± SD” value ([1]; 50% growth inhibition, sigmoidal curve fit, n = 3) was 3.8 ± 0.2 (3) µg/mL, the Selectivity index ([1]; LC50 (CHO)/IC50) was 7.6 and the “ICF (MIC/IC50)^2” value ([1]; inhibition concentration factor) was 2.7. The MIC ([1]; ≥90% growth inhibition, OD 600 nm, TSB, 18 h 37°C) was 6.3 μg/mL and 6.3 (8.5) μg/mL, the “MLC, minimum lethal concentration” value ([2]; MTT, 48 h, MLC90) was 36.6 (50.0)^e μg/mL and the “ICF (MIC/IC50)^2” value ([2]; from MLC and LC50) was 1.6. The CC50 at 48 h [3] was 40 µM and 29 µg/mL and the MIC [4] was > 125 µg/mL.
